One test deals with CK1δ (Homo sapiens, UniProt P48730). The experiment in a line: CK1δ kinase assay (Caliper LabChip electrophoretic separation of fluoresceinated peptide substrate and product). The format is biochemical. Particulars: 200 pM CK1δ, 50 μM ATP, 1.5 μM peptide, 22 hours at room temperature. The method in brief:
(§1)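 Incubated for twenty-two hours at ambient temperature, then quenched with EDTA and analyzed by electrophoretic separation of unphosphorylated and phosphorylated peptide.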

The target of the next test is CK1ε (Homo sapiens, UniProt P49674). Nature of the test: CK1ε kinase assay (Caliper LabChip electrophoretic separation of fluoresceinated peptide substrate and product). It counts as biochemical. Conditions: 200 pM CK1ε, 50 μM ATP, 1.5 μM peptide, 22 hours at room temperature. The method in brief:
as §1

Read-outs that look alike come from different tables or passages of the source.

Chain of CK1ε (P49674 whole entry): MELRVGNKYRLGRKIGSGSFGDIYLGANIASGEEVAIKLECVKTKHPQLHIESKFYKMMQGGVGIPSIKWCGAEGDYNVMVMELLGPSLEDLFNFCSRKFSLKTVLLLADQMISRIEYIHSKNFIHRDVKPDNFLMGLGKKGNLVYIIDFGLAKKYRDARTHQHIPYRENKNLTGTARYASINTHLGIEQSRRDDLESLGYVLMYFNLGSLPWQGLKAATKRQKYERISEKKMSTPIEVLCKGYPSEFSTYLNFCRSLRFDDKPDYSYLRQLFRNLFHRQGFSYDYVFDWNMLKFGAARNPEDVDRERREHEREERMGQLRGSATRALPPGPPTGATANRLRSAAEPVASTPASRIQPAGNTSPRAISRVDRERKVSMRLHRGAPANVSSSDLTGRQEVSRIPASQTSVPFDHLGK
Chain of CK1δ (P48730 whole entry): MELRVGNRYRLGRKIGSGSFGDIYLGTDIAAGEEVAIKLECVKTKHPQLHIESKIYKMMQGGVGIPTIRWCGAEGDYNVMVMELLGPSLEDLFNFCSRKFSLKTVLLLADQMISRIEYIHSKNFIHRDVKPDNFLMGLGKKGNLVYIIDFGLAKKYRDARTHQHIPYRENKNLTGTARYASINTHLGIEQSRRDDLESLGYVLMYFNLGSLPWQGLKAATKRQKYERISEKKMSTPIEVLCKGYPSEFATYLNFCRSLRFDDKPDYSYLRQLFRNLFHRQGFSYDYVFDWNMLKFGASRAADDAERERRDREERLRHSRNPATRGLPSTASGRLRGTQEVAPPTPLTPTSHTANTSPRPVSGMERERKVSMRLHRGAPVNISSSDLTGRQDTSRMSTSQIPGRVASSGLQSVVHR

As for `CC(C)C1CN(C(=O)NC(C)(C)C)Cc2c(C(N)=O)c(-c3ccc(F)c(Cl)c3)nn21` (single isomer, unassigned) [Compound A119, N^5-(tert-Butyl)-2-(3-chloro-4-fluorophenyl)-7-isopropyl-6,7-dihydropyrazolo[1,5-a]pyrazine-3,5(4H)-dicarboxamide], the IC50 at CK1δ (read-out: CK1δ IC50 range) and on CK1ε (read-out: CK1ε IC50 range) was 10 to 100 nM throughout.

Turning to `CC(C)C1CN(C(=O)NC(C)(C)C)Cc2c(C(N)=O)c(-c3ccc(F)c(Cl)c3)nn21` (single isomer, unassigned) [Compound A120, N^5-(tert-Butyl)-2-(3-chloro-4-fluorophenyl)-7-isopropyl-6,7-dihydropyrazolo[1,5-a]pyrazine-3,5(4H)-dicarboxamide], the IC50 on CK1δ (read-out: CK1δ IC50 range) and at CK1ε (read-out: CK1ε IC50 range) was 0.01 to 10 nM in each case.

With `CC(C)(C)C1CN(C(=O)NC2CC(F)(F)C2)Cc2c(C(N)=O)c(-c3ccc(F)c(Cl)c3)nn21` (single isomer, unassigned) [Compound A121, 7-(tert-Butyl)-2-(3-chloro-4-fluorophenyl)-N5-(3,3-difluorocyclobutyl)-6,7-dihydropyrazolo[1,5-a]pyrazine-3,5(4H)-dicarboxamide], the IC50 at CK1δ (read-out: CK1δ IC50 range) lay within 100 to 2000 nM; at CK1ε (read-out: CK1ε IC50 range) it was 10 to 100 nM.

For `CC(C)(C)C1CN(C(=O)NC2CC(F)(F)C2)Cc2c(C(N)=O)c(-c3ccc(F)c(Cl)c3)nn21` (single isomer, unassigned) [Compound A122, 7-(tert-Butyl)-2-(3-chloro-4-fluorophenyl)-N5-(3,3-difluorocyclobutyl)-6,7-dihydropyrazolo[1,5-a]pyrazine-3,5(4H)-dicarboxamide], the IC50 at CK1δ (read-out: CK1δ IC50 range) and on CK1ε (read-out: CK1ε IC50 range) was 0.01 to 10 nM throughout.

Turning to `NC(=O)c1c(-c2ccc(F)c(Cl)c2)nn2c1CN(C(=O)NC1CC(F)(F)C1)CC2C(F)(F)F` (single isomer, unassigned) [Compound A125, 2-(3-Chloro-4-fluorophenyl)-N^5-(3,3-difluorocyclobutyl)-7-(trifluoromethyl)-6,7-dihydropyrazolo[1,5-a]pyrazine-3,5(4H)-dicarboxamide], the IC50 at CK1δ (read-out: CK1δ IC50 range) and at CK1ε (read-out: CK1ε IC50 range) was 10 to 100 nM in each case.

For `NC(=O)c1c(-c2ccc(F)c(Cl)c2)nn2c1CN(C(=O)NC1CC(F)(F)C1)CC2C(F)(F)F` (single isomer, unassigned) [Compound A126, 2-(3-Chloro-4-fluorophenyl)-N^5-(3,3-difluorocyclobutyl)-7-(trifluoromethyl)-6,7-dihydropyrazolo[1,5-a]pyrazine-3,5(4H)-dicarboxamide], the IC50 on CK1δ (read-out: CK1δ IC50 range) and on CK1ε (read-out: CK1ε IC50 range) was 0.01 to 10 nM in each case.

For the molecule `CC(C)(C)NC(=O)N1Cc2c(C(N)=O)c(-c3ccc(F)c(Cl)c3)nn2C(C(F)(F)F)C1` (single isomer, unassigned) [Compound A127, N^5-(tert-Butyl)-2-(3-chloro-4-fluorophenyl)-7-(trifluoromethyl)-6,7-dihydropyrazolo[1,5-a]pyrazine-3,5(4H)-dicarboxamide], the IC50 on CK1δ (read-out: CK1δ IC50 range) was 100 to 2000 nM; at CK1ε (read-out: CK1ε IC50 range) it was 10 to 100 nM.

`CC1CN(C(=O)NC(C)(C)C)Cc2c(C(N)=O)c(-c3cccc(Cl)c3)nn21` (centres unmarked) [A8]: the IC50 at CK1δ (read-out: CK1δ IC50 range) and at CK1ε (read-out: CK1ε IC50 range) was 0.01 to 10 nM each time.

Regarding `NC(=O)c1c(-c2cccc(Cl)c2)nn2c1CN(C(=O)NC1CC(F)(F)C1)CC21CC1` [A130], the IC50 at CK1δ (read-out: CK1δ IC50 range) and at CK1ε (read-out: CK1ε IC50 range) was 0.01 to 10 nM in each case.

Regarding `CC(C)(C)NC(=O)N1CCn2nc(-c3ccc(F)cc3)c(C(N)=O)c2C1` [Compound 1], the IC50 is 27.8 nM on CK1δ (read-out: CK1δ), 10 to 100 nM on CK1δ (read-out: CK1δ IC50 range), 90.3 nM on CK1ε (read-out: CK1ε) and 10 to 100 nM on CK1ε (read-out: CK1ε IC50 range).

In the case of `CC(C)NC(=O)N1CCn2nc(-c3ccc(F)cc3)c(C(N)=O)c2C1` [Compound 2, 2-(4-Fluorophenyl)-N^5-isopropyl-6,7-dihydropyrazolo[1,5-a]pyrazine-3,5(4H)-dicarboxamide], the IC50 on CK1δ (read-out: CK1δ IC50 range) and at CK1ε (read-out: CK1ε IC50 range) was 10 to 100 nM in each case.

`CC(C)(C)NC(=O)N1CCn2nc(-c3cccc(F)c3)c(C(N)=O)c2C1` [Compound 4, N^5-(tert-Butyl)-2-(3-fluorophenyl)-6,7-dihydropyrazolo[1,5-a]pyrazine-3,5(4H)-dicarboxamide]: the IC50 on CK1δ (read-out: CK1δ) was 10.9 nM; on CK1δ (read-out: CK1δ IC50 range) it was 10 to 100 nM; on CK1ε (read-out: CK1ε), 38.1 nM; at CK1ε (read-out: CK1ε IC50 range), 10 to 100 nM.

With `CC(C)NC(=O)N1CCn2nc(-c3cccc(F)c3)c(C(N)=O)c2C1` [Compound 5, 2-(3-Fluorophenyl)-N^5-isopropyl-6,7-dihydropyrazolo[1,5-a]pyrazine-3,5(4H)-dicarboxamide], the IC50 at CK1δ (read-out: CK1δ IC50 range) and on CK1ε (read-out: CK1ε IC50 range) was 10 to 100 nM in each case.

Turning to `NC(=O)c1c(-c2cccc(F)c2)nn2c1CN(C(=O)NC1CCCCC1)CC2` [Compound 6, N^5-Cyclohexyl-2-(3-fluorophenyl)-6,7-dihydropyrazolo[1,5-a]pyrazine-3,5(4H)-dicarboxamide], the IC50 was 2.4 nM on CK1δ (read-out: CK1δ), 0.01 to 10 nM at CK1δ (read-out: CK1δ IC50 range), 7.2 nM on CK1ε (read-out: CK1ε) and 0.01 to 10 nM on CK1ε (read-out: CK1ε IC50 range).

Regarding `NC(=O)c1c(-c2cccc(F)c2)nn2c1CN(C(=O)NC1CC1)CC2` [Compound 7, N^5-Cyclopropyl-2-(3-fluorophenyl)-6,7-dihydropyrazolo[1,5-a]pyrazine-3,5(4H)-dicarboxamide], the IC50 on CK1δ (read-out: CK1δ IC50 range) and on CK1ε (read-out: CK1ε IC50 range) was 10 to 100 nM throughout.

On to `NC(=O)c1c(-c2cccc(F)c2)nn2c1CN(C(=O)NC1CCC1)CC2` [Compound 8, N^5-Cyclobutyl-2-(3-fluorophenyl)-6,7-dihydropyrazolo[1,5-a]pyrazine-3,5(4H)-dicarboxamide], for which the IC50 on CK1δ (read-out: CK1δ IC50 range) and at CK1ε (read-out: CK1ε IC50 range) was 10 to 100 nM each time.

`CC1(NC(=O)N2CCn3nc(-c4cccc(F)c4)c(C(N)=O)c3C2)CC1` [Compound 11, 2-(3-Fluorophenyl)-N^5-(1-methylcyclopropyl)-6,7-dihydropyrazolo[1,5-a]pyrazine-3,5(4H)-dicarboxamide]: the IC50 on CK1δ (read-out: CK1δ IC50 range) and at CK1ε (read-out: CK1ε IC50 range) was 10 to 100 nM each time.

With `NC(=O)c1c(-c2cccc(F)c2)nn2c1CN(C(=O)NC1CCC(F)(F)CC1)CC2` [Compound 12, N^5-(4,4-Difluorocyclohexyl)-2-(3-fluorophenyl)-6,7-dihydropyrazolo[1,5-a]pyrazine-3,5(4H)-dicarboxamide], the IC50 on CK1δ (read-out: CK1δ IC50 range) was 10 to 100 nM; at CK1ε (read-out: CK1ε IC50 range), 100 to 2000 nM.

As for `CC(C)(NC(=O)N1CCn2nc(-c3cccc(F)c3)c(C(N)=O)c2C1)C(F)(F)F` [Compound 13, 2-(3-Fluorophenyl)-N^5-(1,1,1-trifluoro-2-methylpropan-2-yl)-6,7-dihydropyrazolo[1,5-a]pyrazine-3,5(4H)-dicarboxamide], the figures for the IC50 on CK1δ (read-out: CK1δ IC50 range) and at CK1ε (read-out: CK1ε IC50 range) were 0.01 to 10 nM and 10 to 100 nM, respectively.

On to `NC(=O)c1c(-c2cccc(F)c2)nn2c1CN(C(=O)NCCC(F)(F)F)CC2` [Compound 14, 2-(3-Fluorophenyl)-N^5-(3,3,3-trifluoropropyl)-6,7-dihydropyrazolo[1,5-a]pyrazine-3,5(4H)-dicarboxamide], for which the IC50 at CK1δ (read-out: CK1δ IC50 range) and at CK1ε (read-out: CK1ε IC50 range) was 10 to 100 nM throughout.

`NC(=O)c1c(-c2cccc(F)c2)nn2c1CN(C(=O)NCC(F)(F)F)CC2` [Compound 15, 2-(3-Fluorophenyl)-N^5-(2,2,2-trifluoroethyl)-6,7-dihydropyrazolo[1,5-a]pyrazine-3,5(4H)-dicarboxamide]: the IC50 was in the range of 10 to 100 nM at CK1δ (read-out: CK1δ IC50 range) and 100 to 2000 nM on CK1ε (read-out: CK1ε IC50 range).

For `CC1(C)CC(NC(=O)N2CCn3nc(-c4cccc(F)c4)c(C(N)=O)c3C2)CC(C)(C)N1` [Compound 18, 2-(3-Fluorophenyl)-N^5-(2,2,6,6-tetramethylpiperidin-4-yl)-6,7-dihydropyrazolo[1,5-a]pyrazine-3,5(4H)-dicarboxamide], the IC50 lay within 10 to 100 nM at CK1δ (read-out: CK1δ IC50 range) and 100 to 2000 nM on CK1ε (read-out: CK1ε IC50 range).

As to `NC(=O)c1c(-c2cccc(F)c2)nn2c1CN(C(=O)NC1(C(F)(F)F)CC1)CC2` [Compound 20, 2-(3-Fluorophenyl)-N^5-(1-(trifluoromethyl)cyclopropyl)-6,7-dihydropyrazolo[1,5-a]pyrazine-3,5(4H)-dicarboxamide], the IC50 on CK1δ (read-out: CK1δ IC50 range) and at CK1ε (read-out: CK1ε IC50 range) was 10 to 100 nM each time.

For `NC(=O)c1c(-c2cccc(F)c2)nn2c1CN(C(=O)NC13CC(C1)C3)CC2` [Compound 24, N^5-(Bicyclo[1.1.1]pentan-1-yl)-2-(3-fluorophenyl)-6,7-dihydropyrazolo[1,5-a]pyrazine-3,5(4H)-dicarboxamide], the IC50 on CK1δ (read-out: CK1δ IC50 range) and on CK1ε (read-out: CK1ε IC50 range) was 10 to 100 nM in each case.

Consider `NC(=O)c1c(-c2cccc(F)c2)nn2c1CN(C(=O)Nc1cc(F)ccc1F)CC2` [Compound 26, N^5-(2,5-Difluorophenyl)-2-(3-fluorophenyl)-6,7-dihydropyrazolo[1,5-a]pyrazine-3,5(4H)-dicarboxamide], for which the IC50 at CK1δ (read-out: CK1δ IC50 range) and on CK1ε (read-out: CK1ε IC50 range) was 10 to 100 nM each time.

As to `NC(=O)c1c(-c2cccc(F)c2)nn2c1CN(C(=O)Nc1cc(F)cc(F)c1F)CC2` [Compound 27, 2-(3-Fluorophenyl)-N^5-(2,3,5-trifluorophenyl)-6,7-dihydropyrazolo[1,5-a]pyrazine-3,5(4H)-dicarboxamide], the IC50 at CK1δ (read-out: CK1δ IC50 range) and at CK1ε (read-out: CK1ε IC50 range) was 10 to 100 nM each time.

On to `NC(=O)c1c(-c2cccc(F)c2)nn2c1CN(C(=O)Nc1cccc(F)c1F)CC2` [Compound 28, N^5-(2,3-Difluorophenyl)-2-(3-fluorophenyl)-6,7-dihydropyrazolo[1,5-a]pyrazine-3,5(4H)-dicarboxamide], for which the IC50 on CK1δ (read-out: CK1δ IC50 range) and on CK1ε (read-out: CK1ε IC50 range) was 10 to 100 nM each time.

In the case of `NC(=O)c1c(-c2cccc(F)c2)nn2c1CN(C(=O)Nc1ccc(F)cc1F)CC2` [Compound 30, N^5-(2,4-Difluorophenyl)-2-(3-fluorophenyl)-6,7-dihydropyrazolo[1,5-a]pyrazine-3,5(4H)-dicarboxamide], the IC50 on CK1δ (read-out: CK1δ IC50 range) and at CK1ε (read-out: CK1ε IC50 range) was 10 to 100 nM in each case.

Values taken from patent publication US9273058B2 (BRISTOL-MYERS SQUIBB COMPANY, priority 2013, dated 2016).
